In patent US9974304B2, “Use of macrocyclic picolinamides as fungicides” (DOW AGROSCIENCES LLC, priority 2013, dated 2018):

melting point | Compound
66 to 70 °C | COc1ccnc(C(=O)N[C@H]2COC[C@H](Oc3ccccc3)[C@@H](CCC(C)C)[C@H](C)OC2=O)c1OC(C)=O [Compound 47]
75 to 81 °C | COc1ccnc(C(=O)N[C@H]2COC[C@H](Oc3ccccc3)[C@@H](Cc3ccccc3)[C@H](C)OC2=O)c1OC(C)=O [Compound 81]
